{"source": "patent US11123391B2", "about": "“Nasal composition” (INQPHARM GROUP SDN BHD, priority 2015, dated 2021)", "system": "HMC1 cells", "assay": "In vitro testing of mast cell line HMC-1: histamine release after IgE/anti-IgE, ELISA of supernatant", "type": "cell-based", "conditions": "calcium ionophore 100 μg/ml, 30 min; for histamine production / release: no IgE/anti-IgE", "procedure": "Mast cell lines, i.e. HMC1 cells (provided by Dr Joseph H. Butterfield; Mayo Clinic, Rochester, Minn., USA), were cultured in Isocove's Modified Dulbecco's Medium (IMDM) containing 10% Fetal Bovine Serum (FBS), 2 mM L-glutamine, 50 μM 2-mercaptoethanol, 100 U/mL penicillin and 100 μg/mL streptomycin. Cells were maintained at 37° C. in 5% CO2 in a humidified atmosphere.\nPercentage of living cells was determined by trypan blue staining. A 1:10 dilution with 50 μl cell suspension and 450 μl trypan blue was prepared and the number of living and dead cells was counted in a hemocytometer. 10^6 living cells were transferred into safe-lock Eppendorf tubes. Cell suspensions were centrifuged (200 g, 5 min) and supernatant was discarded.\nThe effect of perilla oil, sesame oil and a combination of perilla oil and sesame oil (in a combination ratio of 1:1) in the vehicle Kolliphor ELP (polyoxyl-35 hydrogenated castor oil) was determined. The positive control Cromolyn in phosphate buffer saline (PBS), the vehicles PBS and ELP, and calcium ionophore A23187 were also tested as controls.\nAfter adding 100 μl IgE (100 ng/ml in PBS/ELP) to the cell pellets, cells were incubated for 12 hours over night, at 37° C. Cells were than incubated for 2 hours, at 37° C. with different concentrations of compounds. After centrifugation (200 g, 5 min), supernatant was discarded and cell pellet was again incubated for 1 hour, at 37° C. with 100 μl anti-IgE (1 μg/ml in PBS/ELP). For the final incubation time of 6 hours, at 37° C., 300 μl HMC1 media was added. Cells were again centrifuged (200 g, 5 min) and supernatant was collected and stored as 300 μl aliquots at −20° C. for ELISA measurements. Cell pellets were resuspended in 100 μl HMC1 media for determining cell viability.\nThe procedure was slightly different when the compound testing was calcium ionophore A23187. […]\nThe concentration of histamine in the collected supernatant was determined by ELISA, using a kit obtained from IBL International according to the manufacturer's guidelines. Each sample was measured twice. […]"}
{"molecule": "CNc1ccc2oc(C[C@H]3O[C@@]4(CC[C@H]3C)O[C@H]([C@H](C)C(=O)c3ccc[nH]3)[C@H](C)C[C@H]4C)nc2c1C(=O)O", "note": "[calcium ionophore, calcium ionophore A23187]", "values": [{"measurement": "effect on the cells (cell viability)", "result": "cells were completely destroyed"}, {"measurement": "histamine production / release", "result": "highest values of histamine production"}, {"measurement": "histamine production / release", "setting": "listed as Calcium ionophore", "result": "released all histamine"}]}
